Measured values taken from patent publication EP1914236A1 (Ortho-McNeil Pharmaceutical, Inc., priority 2002, dated 2003).

Molecular target: T1, human B2 bradykinin receptors (Homo sapiens, UniProt P30411)
T1 construct: purchased Receptor Biology, Inc. (Baltimore, MD); host or cells: CHO-K1 cells transfected with the human B2 receptor (membranes)
T1 sequence (P30411 1-391): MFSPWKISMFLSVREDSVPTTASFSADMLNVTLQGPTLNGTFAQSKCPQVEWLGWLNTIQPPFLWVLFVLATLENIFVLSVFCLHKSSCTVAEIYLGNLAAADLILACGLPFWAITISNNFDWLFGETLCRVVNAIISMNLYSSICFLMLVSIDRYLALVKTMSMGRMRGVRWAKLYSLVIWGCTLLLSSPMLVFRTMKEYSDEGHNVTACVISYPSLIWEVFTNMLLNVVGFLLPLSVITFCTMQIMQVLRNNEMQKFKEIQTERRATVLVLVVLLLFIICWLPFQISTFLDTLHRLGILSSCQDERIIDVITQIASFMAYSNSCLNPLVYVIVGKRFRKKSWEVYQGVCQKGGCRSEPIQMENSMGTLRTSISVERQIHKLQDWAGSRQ
Experiment: Bradykinin B2 (BK2) Receptor Binding Assay
Conditions: membranes of CHO-K1 cells transfected with human B2 bradykinin receptors; ~0.25 nM [3H]NPC17731; 60 min at 25°C
Protocol: Cell membranes of CHO-K1 cells transfected with human B2 bradykinin receptors (CH)-hB2) were purchased from Receptor Biology, Inc. (Baltimore,MD).
Samples were harvested on a Brandel Cell Harvester on to Wallac filtermat B sheets (96 sample format), and washed three times with 2 mL cold HEPES-buffer (10 mM, pH 7.5), and dried in a microwave oven.
The data were used to calculate either the % inhibition compared to control binding (when only a single concentration of test compound was evaluated) or a Ki value (when a range of concentrations were tested). Background was subtracted from mean cpm values and % inhibition was calculated as: [(total dpm-test compound dpm)/(total dpm-nonspecific dpm)]x100. Kd and Ki values were calculated using GraphPad PRISM data analysis program.

2-(5-Benzoyl-thiophen-2-yl)-N-[2,4-dimethyl-3-(2-methyl-quinolin-8-yloxymethyl)-phenyl]-N-methyl-acetamide [Compound 108]
Ki: 90 nM

Cc1ccc2cccc(OCc3c(Cl)ccc(N(C)C(=O)Cc4cc(C(=O)c5ccc(S(C)(=O)=O)cc5)cn4C)c3Cl)c2n1 [Compound 1, N-[2,4-Dichloro-3-(2-methyl-quinolin-8-yloxymethyl)-phenyl]-2-[4-(4-methanesulfonyl-benzoyl)-1-methyl-1 H-pyrrol-2-yl]-N-methyl-acetamide]
Ki: 2910 nM

COc1ccc(C(=O)c2cc(CC(=O)N(C)c3ccc(Cl)c(COc4cccc5ccc(C)nc45)c3Cl)n(C)c2)cc1 [Compound 2, N-[2,4-Dichloro-3-(2-methyl-quinolin-8-yloxymethyl)-phenyl]-2-[4-(4-methoxybenzoyl)-1-methyl-1 H-pyrrol-2-yl]-N-methyl-acetamide]
Ki: 518 nM

CCn1cc(CC(=O)N(C)c2ccc(Cl)c(COc3cccc4ccc(C)nc34)c2Cl)cc1C(=O)c1ccc(C#N)cc1 [Compound 3, 2-[5-(4-Cyano-benzoyl)-1-ethyl-1H-pyrrol-3-yl]-N-[2,4-dichloro-3-(2-methyl-quinolin-8-yloxymethyl)phenyl]-N-methyl-acetamide]
Ki: 532 nM

Cc1ccc2cccc(OCc3c(Cl)ccc(N(C)C(=O)Cc4ccc(C(=O)c5ccc(C#N)cc5)[nH]4)c3Cl)c2n1 [Compound 6, 2-[5-(4-Cyano-benzoyl)-1 H-pyrrol-2-yl]-N-[2,4-dichloro-3-(2-methyl-quinolin-8-yloxymethyl)-phenyl]-N-methyl-acetamide]
Ki: 41 nM

CCCN(C(=O)Cc1ccc(C(=O)c2ccc(C#N)cc2)n1C)c1ccc(Cl)c(COc2cccc3ccc(C)nc23)c1Cl [Compound 19, 2-[5-(4-Cyano-benzoyl)-1-methyl-1H-pyrrol-2-yl]-N-[2,4-dichloro-3-(2-methyl-quinolin-8-yloxymethyl)-phenyl]-N-propyl-acetamide]
Ki: 3890 nM

C=CCN(C(=O)Cc1ccc(C(=O)c2ccc(C#N)cc2)n1C)c1ccc(Cl)c(COc2cccc3ccc(C)nc23)c1Cl [Compound 21]
Ki: 514 nM

CCCCCC(=O)c1ccc(CC(=O)N(C)c2ccc(Cl)c(COc3cccc4ccc(C)nc34)c2Cl)n1C [Compound 23, N-[2,4-Dichloro-3-(2-methyl-quinolin-8-yloxymethyl)-phenyl]-2-(5-hexanoyl-1-methyl-1H-pyrrol-2-yl)-N-methyl-acetamide]
Ki: 5430 nM

Cc1ccc2cccc(OCc3c(Cl)ccc(N(C)C(=O)Cc4ccc(C(=O)CN(C)c5ccccc5)n4C)c3Cl)c2n1 [Compound 24]
Ki: 5350 nM

Cc1ccc2cccc(OCc3c(Cl)ccc(N(C)C(=O)Cc4ccc(C(=O)c5ccc(Cl)s5)n4C)c3Cl)c2n1 [Compound 25]
Ki: 4180 nM

Cc1ccc2cccc(OCc3c(Cl)ccc(N(C)C(=O)Cc4ccc(C(=O)c5ccc6ccccc6c5)n4C)c3Cl)c2n1 [Compound 26]
Ki: 4050 nM

Cc1ccc2cccc(OCc3c(Cl)ccc(N(C)C(=O)Cc4ccc(C(=O)C=Cc5ccccc5)n4C)c3Cl)c2n1 [Compound 27]
Ki: 3800 nM

Cc1ccc2cccc(OCc3c(Cl)ccc(N(C)C(=O)Cc4ccc(C(=O)Cc5ccccc5)n4C)c3Cl)c2n1 [Compound 28]
Ki: 2370 nM

Cc1ccc2cccc(OCc3c(Cl)ccc(N(C)C(=O)Cc4ccc(C(=O)c5ccccc5)n4C)c3Cl)c2n1 [Compound 29]
Ki: 2290 nM

Cc1ccc2cccc(OCc3c(Cl)ccc(N(C)C(=O)Cc4ccc(C(=O)C5CCCCC5)n4C)c3Cl)c2n1 [Compound 30]
Ki: 1790 nM

Cc1ccc2cccc(OCc3c(Cl)ccc(N(C)C(=O)Cc4ccc(C(=O)C(C)(C)C)n4C)c3Cl)c2n1 [Compound 31]
Ki: 1710 nM

Cc1ccc2cccc(OCc3c(Cl)ccc(N(C)C(=O)Cc4ccc(C(=O)C5CC5)n4C)c3Cl)c2n1 [Compound 32]
Ki: 1530 nM

Cc1ccc2cccc(OCc3c(Cl)ccc(N(C)C(=O)Cc4ccc(C(=O)c5cccnc5)n4C)c3Cl)c2n1 [Compound 33]
Ki: 1390 nM

Cc1ccc2cccc(OCc3c(Cl)ccc(N(C)C(=O)Cc4ccc(C(=O)c5ccc(F)cc5)n4C)c3Cl)c2n1 [Compound 34]
Ki: 1150 nM

Cc1ccc2cccc(OCc3c(Cl)ccc(N(C)C(=O)Cc4ccc(C(=O)c5ccc(Br)cc5)n4C)c3Cl)c2n1 [Compound 35]
Ki: 1050 nM

CC(=O)Nc1ccccc1C(=O)c1ccc(CC(=O)N(C)c2ccc(Cl)c(COc3cccc4ccc(C)nc34)c2Cl)n1C [Compound 36]
Ki: 869 nM

Cc1ccc2cccc(OCc3c(Cl)ccc(N(C)C(=O)Cc4ccc(C(=O)CN5CCCC5)n4C)c3Cl)c2n1 [Compound 37]
Ki: 846 nM

Cc1ccc2cccc(OCc3c(Cl)ccc(N(C)C(=O)Cc4ccc(C(=O)c5cccc6ccccc56)n4C)c3Cl)c2n1 [Compound 38]
Ki: 807 nM

CC(C)=CC(=O)c1ccc(CC(=O)N(C)c2ccc(Cl)c(COc3cccc4ccc(C)nc34)c2Cl)n1C [Compound 39]
Ki: 784 nM

Cc1ccc2cccc(OCc3c(Cl)ccc(N(C)C(=O)Cc4ccc(C(=O)c5ccc(Cl)cc5)n4C)c3Cl)c2n1 [Compound 40]
Ki: 752 nM

Cc1ccc2cccc(OCc3c(Cl)ccc(N(C)C(=O)Cc4ccc(C(=O)c5ccc(C)s5)n4C)c3Cl)c2n1 [Compound 41]
Ki: 704 nM

Cc1ccc2cccc(OCc3c(Cl)ccc(N(C)C(=O)Cc4ccc(C(=O)c5cccc([N+](=O)[O-])c5)n4C)c3Cl)c2n1 [Compound 42]
Ki: 688 nM

CSc1ccc(C(=O)c2ccc(CC(=O)N(C)c3ccc(Cl)c(COc4cccc5ccc(C)nc45)c3Cl)n2C)s1 [Compound 43]
Ki: 680 nM

Cc1ccc2cccc(OCc3c(Cl)ccc(N(C)C(=O)Cc4ccc(C(=O)c5cccc(C#N)c5)n4C)c3Cl)c2n1 [Compound 44]
Ki: 643 nM

Cc1ccc2cccc(OCc3c(Cl)ccc(N(C)C(=O)Cc4ccc(C(=O)c5ccccn5)n4C)c3Cl)c2n1 [Compound 45]
Ki: 579 nM

Cc1ccc2cccc(OCc3c(Cl)ccc(N(C)C(=O)Cc4ccc(C(=O)c5ccc(CN6CCCC6)cc5)n4C)c3Cl)c2n1 [Compound 46, N-[2,4-Dichloro-3-(2-methyl-quinolin-8-yloxymethyl)-phenyl]-N-methyl-2-[l-methyl-5-(4-pyrrolidin-1-ylmethyl-benzoyl)-1H-pyrrol-2-yl]-acetamide]
Ki: 560 nM

Cc1ccc2cccc(OCc3c(Cl)ccc(N(C)C(=O)Cc4ccc(C(=O)c5ccc(CN(C)C)cc5)n4C)c3Cl)c2n1 [Compound 47]
Ki: 515 nM

CCN(CC)CC(=O)c1ccc(CC(=O)N(C)c2ccc(Cl)c(COc3cccc4ccc(C)nc34)c2Cl)n1C [Compound 48]
Ki: 510 nM

Cc1ccc2cccc(OCc3c(Cl)ccc(N(C)C(=O)Cc4ccc(C(=O)CN(C)c5ccccn5)n4C)c3Cl)c2n1 [Compound 49]
Ki: 508 nM

Cc1ccc2cccc(OCc3c(Cl)ccc(N(C)C(=O)Cc4ccc(C(=O)c5ccc6c(c5)OCO6)n4C)c3Cl)c2n1 [Compound 50]
Ki: 583 nM

Cc1ccc2cccc(OCc3c(Cl)ccc(N(C)C(=O)Cc4ccc(C(=O)c5ccc(C(F)(F)F)cc5)n4C)c3Cl)c2n1 [Compound 51]
Ki: 476 nM

Cc1ccc2cccc(OCc3c(Cl)ccc(N(C)C(=O)Cc4ccc(C(=O)c5cnc(Cl)c(Cl)c5)n4C)c3Cl)c2n1 [Compound 52]
Ki: 427 nM

Cc1ccc2cccc(OCc3c(Cl)ccc(N(C)C(=O)Cc4ccc(C(=O)c5ccccc5N)n4C)c3Cl)c2n1 [Compound 53]
Ki: 393 nM

Cc1ccc(C(=O)c2ccc(CC(=O)N(C)c3ccc(Cl)c(COc4cccc5ccc(C)nc45)c3Cl)n2C)cc1 [Compound 54]
Ki: 356 nM

Cc1ccc2cccc(OCc3c(Cl)ccc(N(C)C(=O)Cc4ccc(C(=O)c5ccsc5)n4C)c3Cl)c2n1 [Compound 55]
Ki: 341 nM

Cc1ccc2cccc(OCc3c(Cl)ccc(N(C)C(=O)Cc4ccc(C(=O)c5ccc(N)cc5)n4C)c3Cl)c2n1 [Compound 56, 2-[5-(4-Amino-benzoyl)-methyl-1H-pyrrol-2-yl]-N-[2,4-dichloro-3-(2-methyl-quinolin-8-yloxymethyl)-phenyl]-N-methyl-acetamide]
Ki: 406 nM

Cc1ccc2cccc(OCc3c(Cl)ccc(N(C)C(=O)Cc4ccc(C(=O)c5cccc(N)c5)n4C)c3Cl)c2n1 [Compound 57]
Ki: 361 nM

Cc1ccc2cccc(OCc3c(Cl)ccc(N(C)C(=O)Cc4ccc(C(=O)c5ccc(S(N)(=O)=O)cc5)n4C)c3Cl)c2n1 [Compound 70]
Ki: 162 nM

CCOc1ccc(C(=O)c2ccc(CCC(=O)N(C)c3ccc(C)c(COc4cccc5ccc(C)nc45)c3C)n2C)cn1 [Compound 86]
Ki: 309 nM

CCOc1ccc(C(=O)c2ccc(CCC(=O)N(C)c3ccc(Cl)c(COc4cccc5ccc(C)nc45)c3Cl)n2C)cn1 [Compound 87]
Ki: 143 nM

COc1ccc(-c2ccc(CC(=O)N(C)c3ccc(C)c(COc4cccc5ccc(C)nc45)c3C)n2C)cc1 [Compound 96, N-[2,4-Dimethyl-3-(2-methyl-quinolin-8-yloxymethyl)-phenyl]-2-[5-(4-methoxyphenyl)-1-methyl-1H-pyrrol-2-yl]-N-methyl-acetamide]
Ki: 2120 nM
